According to patent US20110172182A1, “Carboxyethylated Cyclodextrin Polysulfates Useful As Medicaments” (ARCARIOS B.V., priority 2008, published 2011):

What was measured:
[1] = system: human articular chondrocytes from osteoarthritic (OA) cartilage; assay: Aggrecan synthesis by OA chondrocytes in alginate beads (ELISA of interterritorial matrix); type: cell-based; settings: 5 μg/ml, 5 culture days
Text: (§1) Human articular chondrocytes were isolated as described in J. Tissue Culture Methods (1993) 15:139-146). Briefly, human articular cartilage was obtained at total knee replacement surgery from femoral condyles and the tibial plateau of 15 different donors. None of them had received corticosteroids or cytostatic drugs. Both visually intact and fibrillated OA cartilage samples were harvested separately and only OA cartilage was used for cell culture. The cartilage samples were diced into small fragments and the chondrocytes were isolated by sequential enzymatic digestion (hyaluronidase, pronase and collagenase) of the extracellular matrix (ECM) as described in Osteoarthritis Cartilage (2001) 9:73-84. Isolated cells were then centrifuged for 10 minutes at 1500 rpm, washed three times in Dulbecco's Modified Eagle's Medium (DMEM) with 10% (v/v) fetal calf serum, and counted with trypan blue to exclude dead cells. More than 90% of the cells were viable after isolation.
(§2) Chondrocytes were cultured in alginate beads, to maintain their differentiated phenotype. The cultures were prepared as described in Connect Tissue Res. (1989) 19:277-297. Chondrocytes suspended in one volume of double-concentrated Hank's Balanced Salts Solution (HBSS, commercially available from Gibco) without calcium and magnesium were carefully mixed with an equal volume of 2% (w/v) autoclaved alginate (low-viscosity alginate from Macrocystis pyrifera, commercially available from Sigma) in HBSS. The final cell concentration was 5×10^6 chondrocytes per ml in 1% alginate. The chondrocyte/alginate suspension was then slowly dripped through a 23-gauge needle into a 102 mM calcium chloride solution. […]
(§3) To study the impact of the changes in the chondrocyte cultures after cyclodextrin polysulfate treatment, mean IL-6 and aggrecan concentrations were calculated from triplicate chondrocyte cultures of each donor. […] Evolution of mouse weight over time was analysed by longitudinal data analysis methods, more specific by area under the curve and mixed model analysis. […]

[2] = system: human articular chondrocytes from osteoarthritic (OA) cartilage; assay: IL-6 release by OA chondrocytes in alginate beads; type: cell-based; settings: 5 μg/ml, 5 culture days
Text: as §1, §2, §3

[3] = system: healthy donor thrombocytes; assay: Platelet activation (CD62p, flow cytometry) by HIT patient anti-heparin/PF4 antibodies; type: cell-based, human; settings: for ratio: % CD62p+ (with substance)/% CD62p+ (without) / ΔCD62p+ %: percentage increases in CD62p positive platelets: 0.3 IU heparin or 5 μg/ml polysaccharide
Procedure: The activation of healthy donor thrombocytes by HIT patient anti-heparin/PF4 antibodies in the presence of heparin and the differently sulfated forms of β-cyclodextrin was tested. […] The expression of CD62p by the activated platelets was assayed by means of flow cytometry with a FC500 analyzer (available from Beckman Coulter, Belgium). Platelet-rich plasma solution (PRP) was prepared by slow centrifugation (10 minutes at 180 g) of fresh citrate anti-coagulated blood (1:9 v/v, 0.129 mol/L or 3.8% trisodium citrate buffer), obtained from normal donors. HIT Ab positive plasma samples from patients and HIT Ab negative control plasma from healthy donors were prepared by double centrifugation (15 minutes at 2230 rpm) of fresh citrate anti-coagulated blood. 70 μl of PRP was incubated with 20 μL of HIT Ab containing plasma optionally in the presence of heparin (0.3 IU/ml) or the relevant β-cyclodextrin derivative (5 μg/ml). Experiments with each HIT Ab positive plasma sample were repeated independently using thrombocytes of 2 donors (A and B), to avoid the possibility of non-reactive platelets.
Following the initial 40 minutes incubation step, 5 μl of the platelets solution was transferred to a fresh tube with 85 μL phosphate buffered saline (PBS) containing 1% bovine serum albumin (BSA) and 0.1% Na-azide, 5 μl (0.25 μg) monoclonal anti-CD41 antibodies (Ab) (phycoerythrin-Texas Red Energy coupled dye (ECD)-conjugated, Beckman Coulter) and 5 μl (0.125 μg) of anti-CD62p Ab (phycoerythrin (PE)-conjugated, Beckman Coulter). CD41 (Glycoprotein […]) is a selective marker of platelets and platelet precursors. CD62p is a constituent of alpha granules and is released to the platelet surface on activation.
After 20 minutes of incubation at room temperature, the total volume of the platelet suspension was adjusted to 600 μL buffered solution and evaluated without delay by flow cytometry. 20,000 events per sample were analysed and the platelet populations were gated by side scatter characteristics and the platelet marker CD41. The fraction of activated platelets among the total platelet population was determined and relative CD62p ratios to the internal controls were calculated. [ratio: % CD62p^+ (0.3 IU Heparine or 5 μg/ml β-cyclodextrin derivative)/% CD62p^+ (0 IU Heparine or 0 μg/ml β-cyclodextrin derivative)]. Test results for the heparin treated platelets were evaluated by the scoring system described in Thromb. Haemost. (1999) 82:1255-1259. Control tests were scored positive when the calculated ratios of at least 2 donors were more then 2, based on previously obtained results with normal individuals. To evaluate the potential of the different β-cyclodextrin derivatives to induce platelet activation, both the percentages and ratios of CD62p^+ platelets after incubation with the respective β-cyclodextrin were statistically compared to the percentage and the ratio of CD62p^+ platelets after heparin incubation.

normal pooled plasma = assay: Blood coagulation activities (aPTT, PT, fibrinogen) in normal pooled plasma; design: species or system human; settings: after incubation with 50 or 100 μg/ml
Procedure: MA-CDPS, HP-CDPS, CE-CDPS and CDPS (as defined in examples 3-4 and characterised in table 1) were prepared as buffered solutions at various concentrations. The polysaccharides were incubated with normal pooled plasma prepared out of 40 healthy volunteers and analyzed for their effects on activated partial thromboplastin time (aPTT), prothrombin time (PT) and fibrinogen levels on a STA Compact® coagulation analyzer (available from Diagnostica Stago, Asnieres, France) according to the manufacturers instructions.

[4] = system: rabbit model of experimental osteoarthritis (OA); settings: subcutaneously administered; cited from earlier work
thrombin clotting = settings: in vitro; cited from earlier work
[5] = HIT ab plasma pat1, platelet donor dA
[6] = HIT ab plasma pat1, platelet donor dB
[7] = HIT ab plasma pat2, platelet donor dB
[8] = HIT ab plasma pat3, platelet donor dA
[9] = HIT ab plasma pat3, platelet donor dB
[10] = HIT ab plasma pat4, platelet donor dA
[11] = HIT ab plasma pat4, platelet donor dB

2,3-di-O-methyl-6-sulfate-β-cyclodextrin [ME-CD-6-S]
effect on chondrocyte aggrecan synthesis [1]: failed to affect
effect on chondrocyte IL-6 release/secretion [2]: failed to affect

2,6-di-O-methyl-3-sulfate-β-cyclodextrin [ME-CD-3-S]
effect on chondrocyte aggrecan synthesis [1]: failed to affect
effect on chondrocyte IL-6 release/secretion [2]: failed to affect

COC[C@H]1O[C@@H]2O[C@H]3[C@H](OC)[C@@H](OC)[C@@H](O[C@H]4[C@H](OC)[C@@H](OC)[C@@H](O[C@H]5[C@H](OC)[C@@H](OC)[C@@H](O[C@H]6[C@H](OC)[C@@H](OC)[C@@H](O[C@H]7[C@H](OC)[C@@H](OC)[C@@H](O[C@H]8[C@H](OC)[C@@H](OC)[C@@H](O[C@H]1[C@H](OC)[C@H]2OC)O[C@@H]8COC)O[C@@H]7COC)O[C@@H]6COC)O[C@@H]5COC)O[C@@H]4COC)O[C@@H]3COC [ME-CD, 2,3,6-tri-O-methyl-β-cyclodextrin]
effect on chondrocyte aggrecan synthesis [1]: failed to promote
effect on chondrocyte IL-6 release/secretion [2]: failed

β-cyclodextrin polysulfate [CDPS]
ratio: % CD62p+ (with substance)/% CD62p+ (without) [3, 5]: 5.8
ΔCD62p+ %: percentage increases in CD62p positive platelets [3, 5]: 76.1%
ratio: % CD62p+ (with substance)/% CD62p+ (without) [3, 6]: 6.5
ΔCD62p+ %: percentage increases in CD62p positive platelets [3, 6]: 73.1%
ΔCD62p+ %: percentage increases in CD62p positive platelets ([3]; HIT ab plasma pat2, platelet donor dA): 27.5%
ratio: % CD62p+ (with substance)/% CD62p+ (without) [3, 7]: 0.7
ΔCD62p+ %: percentage increases in CD62p positive platelets [3, 7]: −2.8%
ratio: % CD62p+ (with substance)/% CD62p+ (without) [3, 8]: 2.5
ΔCD62p+ %: percentage increases in CD62p positive platelets [3, 8]: 42.7%
ratio: % CD62p+ (with substance)/% CD62p+ (without) [3, 9]: 7.0
ΔCD62p+ %: percentage increases in CD62p positive platelets [3, 9]: 34.1%
ratio: % CD62p+ (with substance)/% CD62p+ (without) [3, 10]: 4.4
ΔCD62p+ %: percentage increases in CD62p positive platelets [3, 10]: 63.5%
ratio: % CD62p+ (with substance)/% CD62p+ (without) [3, 11]: 2.5
ΔCD62p+ %: percentage increases in CD62p positive platelets [3, 11]: 58.1%
platelet activation ([3]; in the presence of plasma samples of individuals that had developed HIT Ab): induced platelet activation
fibrinogen concentrations (normal pooled plasma): Minor decreases
cartilage lesions and osteocyte formation in the affected joints [4]: reduced
thrombin clotting times (thrombin clotting): prolongation
thrombus formation (thrombin clotting): reduction
